Laboratory results taken from US7547729B2, “1,3-diphenylprop-2-en-1-one derivative compounds, preparation method thereof and uses of same” (Genfit, priority 2004, dated 2009).

How the values were obtained:
[1] = test system: LDL; assay: Protection against LDL oxidation by copper (conjugated diene formation); format: biochemical; conditions: 10^−4M; for lag phase: absence of compounds 67.3 minutes
Procedure: Unless otherwise indicated, the reagents were from Sigma (St Quentin, France). LDL were prepared according to the method described by Lebeau et al. (Lebeau, Furman et al. 2000).
The solutions of test compounds were prepared at 10^−2 M concentration in bicarbonate buffer (pH 9) and diluted in PBS to obtain final concentrations ranging from 0.1 to 100 μM
Prior to oxidation, EDTA was removed from the LDL preparation by dialysis. Oxidation then took place at 30° C. by adding 100 μl of 16.6 μM CuSO4 solution to 160 μL of LDL (125 μg protein/ml) and 20 μl of a test compound solution. The formation of dienes, the species under observation, was followed by measuring optical density at 232 nm in the samples treated with the compounds in the presence or absence of copper. Optical density at 232 nm was measured every 10 minutes for 8 hours in a thermostated spectrophotometer (Tecan Ultra 380). The analyses were performed in triplicate. The compounds were considered to have antioxidant activity when they induced a longer lag phase and reduced the rate of oxidation and the amount of dienes formed in comparison with the control sample.

[2] = target: T1, PPARα (Homo sapiens, UniProt Q07869); assay: PPARα/Gal4 transactivation system in COS-7 cells; format: cell-based; conditions: 24 hours
T1 construct: expressed in transfected cells; host or cells: COS-7 cells
T1 sequence (Q07869 239-466 limits assumed): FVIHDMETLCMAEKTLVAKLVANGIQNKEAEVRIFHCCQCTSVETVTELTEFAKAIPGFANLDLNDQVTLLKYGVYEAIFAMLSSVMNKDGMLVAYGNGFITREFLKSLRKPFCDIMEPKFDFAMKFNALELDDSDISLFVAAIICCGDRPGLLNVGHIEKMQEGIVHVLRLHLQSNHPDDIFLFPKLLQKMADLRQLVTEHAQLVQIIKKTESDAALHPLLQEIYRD
Procedure: (§1) COS-7 cells were incubated with different concentrations of the inventive compounds for 24 hours. The results are expressed as the induction factor (ratio of luminescent signal obtained with the compound and that observed without the compound) after the different treatments.
(§2) PPAR activation was tested in vitro in RK13 epitheloid or COS-7 cell lines by measuring the transcriptional activity of chimeras composed of the DNA binding domain of the yeast gal4 transcription factor and the ligand binding domain of the different PPARs. These latter results were then confirmed in cell lines according to the following protocols:
(§3) RK13 cells were from ECACC (Porton Down, UK), COS-7 cells were from the ATCC (American Type Culture Collection) and were grown in DMEM medium supplemented with 10% (VN) fetal calf serum, 100 U/ml penicillin (Gibco, Paisley, UK) and 2 mM L-glutamine (Gibco, Paisley, UK). The culture medium was changed every two days. Cells were kept at 37° C. in a humidified 95% air/5% CO2 atmosphere.
(§4) The plasmids pG5TkpGL3, pRL-CMV, pGal4-hPPARα, pGal4-hPPARγ, pGal4-hPPARδ and pGal4-φ have been described by Raspe, Madsen et al. (1999). The pGal4-mPPARα, pGal4-hPPARγ and pGal4-hPPARδ constructs were obtained by cloning into the pGal4-φ vector of PCR-amplified DNA fragments corresponding to the DEF domains of the human PPARα, PPARγ and PPARδ nuclear receptors.
(§5) RK13 cells were seeded in 24-well culture dishes at 5×10^4 cells/well, COS-7 cells in 96-well culture dishes at 5×10^4 cells/well and transfected for 2 hours with the reporter plasmid pG5TkpGL3 (50 ng/well), the expression vectors pGal4-φ, pGal4-mPPARα, pGal4-hPPARα, pGal4-hPPARγ, pGal4-hPPARδ (100 ng/well) and the transfection efficiency control vector pRL-CMV (1 ng/well) according to the previously described protocol (Raspe, Madsen et al. 1999), then incubated for 36 hours with the test compounds. At the end of the experiment, the cells were lysed (Gibco, Paisley, UK) and luciferase activity was determined with a Dual-Luciferase™ Reporter Assay System kit (Promega, Madison, Wis., USA) for RK13 cells and Steady Glow Luciferase (Promega) for COS-7 cells according to the supplier's instructions as previously described. The protein content of the cell extracts was then measured with the Bio-Rad Protein Assay (Bio-Rad, Munich, Germany) as directed by the supplier.

[3] = target: T2, PPARγ (Homo sapiens, UniProt P37231); assay: PPARγ/Gal4 transactivation system in COS-7 cells; format: cell-based; conditions: 24 hours
T2 construct: expressed in transfected cells; host or cells: COS-7 cells
T2 sequence (P37231 238-503 limits assumed): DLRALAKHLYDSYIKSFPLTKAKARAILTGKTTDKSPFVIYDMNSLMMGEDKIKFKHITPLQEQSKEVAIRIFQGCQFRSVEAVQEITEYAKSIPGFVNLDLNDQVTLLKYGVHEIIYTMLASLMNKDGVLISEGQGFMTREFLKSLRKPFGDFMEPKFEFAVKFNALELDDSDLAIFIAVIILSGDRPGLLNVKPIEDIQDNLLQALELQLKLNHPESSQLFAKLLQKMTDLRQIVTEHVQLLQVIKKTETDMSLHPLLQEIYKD
Procedure: as §1, §2, §3, §4, §5

[4] = target: T3, PPARδ (Homo sapiens, UniProt Q03181); assay: PPARδ/Gal4 transactivation system in COS-7 cells; format: cell-based; conditions: 24 hours
T3 construct: expressed in transfected cells; host or cells: COS-7 cells
T3 sequence (Q03181 211-439 limits assumed): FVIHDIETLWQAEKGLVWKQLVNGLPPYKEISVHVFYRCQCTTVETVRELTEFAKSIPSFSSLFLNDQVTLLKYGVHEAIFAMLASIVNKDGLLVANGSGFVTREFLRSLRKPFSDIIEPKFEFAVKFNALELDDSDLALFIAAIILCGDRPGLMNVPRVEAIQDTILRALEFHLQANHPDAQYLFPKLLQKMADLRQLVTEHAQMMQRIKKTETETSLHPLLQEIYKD
Procedure: as §1, §2, §3, §4, §5

[5] = test system: Apo E2/E2 transgenic mice; assay: Effects on triglyceride and cholesterol metabolism in Apo E2/E2 transgenic mice; format: in vivo; conditions: gavage, 50 mg/kg/day, seven days
Procedure: FIGS. 19a, 19b, 19c, 19d, 20a, 20b, 20c and 20d illustrate the effects of treatment with compound 2 (Cpd2), compound 13 (Cpd13), compound 33 (Cpd33) and compound 39 (Cpd39) on triglyceride and cholesterol metabolism in Apo E2/E2 transgenic mice treated by gavage with the compound at a dose of 50 mg/kg/day, for seven days.
Apo E2/E2 transgenic mice were housed in a 12-hour light/dark cycle at a constant temperature of 20±3° C. After a 1-week acclimatization period, the mice were weighed and divided into groups of 6 animals selected such that the distribution of body weight was uniform. The test compounds were suspended in carboxymethylcellulose and administered by gastric lavage at the indicated doses, once a day for 7 days. Animals had access to food and water ad libitum. At the end of the experiments, animals were weighed and sacrificed under anesthesia. Blood was collected on EDTA. Plasma was isolated by centrifugation at 3000 rpm for 20 minutes. Liver samples were removed and stored frozen in liquid nitrogen for later analysis.
Lipid concentrations in plasma (total cholesterol and free cholesterol, triglycerides and phospholipids) were determined by a colorimetric assay (Boehringer, Mannheim, Germany) according to the supplier's instructions. Plasma concentrations of apolipoproteins AI, AII and CIII were determined as previously described (Raspe et al. 1999, Asset G et al., Lipids, 1999).

[6] = target: T1, PPARα; assay: PPARα/Gal4 transactivation system in RK13 cells; format: cell-based; conditions: 24 hours
Procedure: (§6) RK13 cells were incubated with the compound 2 at concentrations comprised between 0.01 and 10 μM for 24 hours. The results are expressed as the induction factor (ratio of luminescent signal obtained with the compound and that observed without the compound) after the different treatments.
PPAR activation was tested in vitro in RK13 epitheloid or COS-7 cell lines by measuring the transcriptional activity of chimeras composed of the DNA binding domain of the yeast gal4 transcription factor and the ligand binding domain of the different PPARs. These latter results were then confirmed in cell lines according to the following protocols: […]
as §5, with “At the end of the experiment, the cells were lysed (Gibco, Paisley, UK) and luciferase activity was determined with a Dual-Luciferase™ Reporter Assay System kit (Promega, Madison, Wis., USA) for RK13 cells and Steady Glow Luciferase (Promega) for COS-7 cells according to the supplier's instructions as previously described.” left out

[7] = target: T2, PPARγ; assay: PPARγ/Gal4 transactivation system in RK13 cells; format: cell-based; conditions: 24 hours
Procedure: as §6, §2, §3, §4, §5

[8] = test system: monocyte-derived dendritic cells; assay: Differentiation of monocytes to dendritic cells (flow cytometry of surface markers); format: cell-based
Procedure: Compound 39 (10^−6 M) was added at D0 of differentiation of monocytes to dendritic cells. After six days of differentiation (in the presence of cytokines GM-CSF and IL-4), the dendritic cells were analyzed by flow cytometry.
For these experiments, blood samples from volunteer donors (Etablissement Francais du Sang) and monocytes were isolated by a standard protocol using anti-CD14-conjugated magnetic beads (Miltenyi Biotec). Monocytes isolated in this manner were then induced to differentiate by incubation for 6 days in culture medium containing a mixture of cytokines GM-CSF and IL-4 (20 ng/ml for each cytokine).
Compound 39 was added at t=0 and acquisition of the dendritic cell phenotype was followed by expression of the cell surface marker CD1a.

[9] = compound added at t=0, six days differentiation, data not shown

Structure (SMILES)	Induction factor ([2]; 0.001 μM)	Induction factor ([2]; 0.003 μM)	Induction factor ([2]; 0.01 μM)	Induction factor ([2]; 0.03 μM)	Induction factor ([2]; 0.1 μM)	Induction factor ([2]; 0.3 μM)	Induction factor ([2]; 1 μM)	Induction factor ([3]; 0.001 μM)	Induction factor ([3]; 0.003 μM)	Induction factor ([3]; 0.01 μM)	Induction factor ([3]; 0.03 μM)	Induction factor ([3]; 0.1 μM)	Induction factor ([3]; 0.3 μM)	Induction factor ([3]; 1 μM)	Induction factor ([3]; 3 μM)	plasma cholesterol [5]	plasma triglycerides [5]	also measured
CSc1c(C)cc(C(=O)/C=C/c2cc(C)c(OC(C)(C)C(=O)O)c(C)c2)cc1C [compound 13, 1-(4-Methylthio-3,5-dimethylphenyl)-3-(4-carboxydimethylmethyloxy-3,5-dimethylphenyl)prop-2-en-1-one]	1.10	1.58	4.99	10.89	16.87	15.95	17.05	0.99	1.15	1.67	2.18	3.01	3.66	4.03	3.89	decrease	decrease	lag phase ([1]; FIG. 7a): 219 min; diene oxidation rate ([1]; FIG. 7b, absence of compounds 2.5): 1.5 nmol/min/mg of LDL; Induction factor ([4]; 0.01 μM): 1.50; Induction factor ([4]; 0.03 μM): 2.17; Induction factor ([4]; 0.1 μM): 3.37; Induction factor ([4]; 0.3 μM): 14.00; Induction factor ([4]; 1 μM): 28.75; Induction factor ([4]; 3 μM): 27.72
CCCCCSCCOc1ccc(C(=O)/C=C/c2cc(C)c(OC(C)(C)C(=O)O)c(C)c2)cc1 [compound 2, 1-(4-(Pentylthioethyloxy)phenyl)-3-(4-carboxydimethylmethyloxy-3,5-dimethylphenyl)prop-2-en-1-one]																decrease	decrease	lag phase of conjugated diene formation ([1]; FIG. 1a, copper alone 120 minutes): 314 min; rate of diene formation ([1]; FIG. 1b, copper alone 1.8): 0.1 nmol/min/mg of LDL; maximum amount of conjugated dienes formed ([1]; FIG. 1c, copper alone 372): 35 nmol/mg; decrease in the amount of conjugated dienes formed ([1]; FIG. 1c, versus copper alone): 90%; Induction factor ([6]; 1 μM): 8.83; Induction factor ([6]; 10 μM): 18.49; Induction factor ([7]; 0.01 μM): 1.31; Induction factor ([7]; 0.03 μM): 1.18; Induction factor ([7]; 0.1 μM): 1.73; Induction factor ([7]; 0.3 μM): 4.58; Induction factor ([7]; 1 μM): 9.50; Induction factor ([7]; 3 μM): 16.64; Induction factor ([7]; 10 μM): 31.00
CCCCCCSc1c(C)cc(C(=O)/C=C/c2cc(C)c(OC(C)(C)C(=O)O)c(C)c2)cc1C [compound 39, 1-(4-Hexylthio-3,5-dimethylphenyl)-3-(4-carboxydimethylmethyloxy-3,5-dimethylphenyl)prop-2-en-1-one]	1.08	1.17	3.19	7.69	9.68	10.16	10.42	0.95	0.96	1.56	3.06	4.08	4.86	4.78	4.72	decrease	decrease	lag phase ([1]; FIG. 8a): 133 min; rate of LDL oxidation ([1]; FIG. 8b, absence of compounds 2.5): 1.2 nmol/min/mg; total amount of dienes formed ([1]; FIG. 8c, absence of compound 432.3): 371.2 nmol/mg; Induction factor ([2]; 3 μM): 9.96; expression of CD1a at the cell surface ([8]; 10^−6 M added at D0, six days with GM-CSF and IL-4): almost totally inhibiting; CD86 expression [8, 9]: slightly increased; expression of the costimulation molecule CD80 [8, 9]: reduced, to a lesser extent
